Like-named read-outs stand apart in the source and are kept apart here.

This test deals with T1, Human CGRP1 Receptor (Homo sapiens, UniProt O60894+Q16602).
T1 construct: endogenous in cells; host or cells: SK-N-MC cells (membrane homogenate)
The test is described as follows: CGRP Binding Assay ([125I]-CGRP radioligand displacement, SK-N-MC membrane homogenate). As for the experimental part: Tissue Culture. SK-N-MC cells were grown at 37° C. in 5% CO2 as a monolayer in medium consisting of MEM with Earle's salts and L-glutamine (Gibco) supplemented with 10% fetal bovine serum (Gibco).
Cell Pellets. […] The cells were transferred from plates to polypropylene tubes (16×100 mm) and homogenized using a polytron. Homogenates were centrifuged at 32,000×g for 30 min. The pellets were resuspended in cold hypotonic lysis buffer with 0.1% mammalian protease inhibitor cocktail (Sigma) and assayed for protein concentration. The SK-N-MC homogenate was then aliquoted and stored at −80° C. until needed.
Radioligand Binding Assay. The compounds of invention were solubilized and carried through serial dilutions using 100% DMSO. Aliquots from the compound serial dilutions were further diluted 25 fold into assay buffer (50 mM Tris-Cl pH 7.5, 5 mM MgCl2, 0.005% Triton X-100) and transferred (volume 50 μl) into 96 well assay plates. […] SK-N-MC pellets were thawed, diluted in assay buffer with fresh 0.1% mammalian protease inhibitor cocktail (Sigma), and homogenized again. SK-N-MC homogenate (5 μg/well) was added in a volume of 100 μl. The assay plates were then incubated at room temperature for 2 h. Assays were stopped by addition of excess cold wash buffer (20 mM Tris-Cl pH 7.5, 0.1% BSA) immediately followed by filtration over glass fiber filters (Whatman GF/B) previously soaked in 0.5% PEI. Non-specific binding was defined with 1 μM beta-CGRP. Protein bound radioactivity was determined using a gamma or scintillation counter.
For orientation: Loss of bound radioactivity is the signal in a displacement assay; it reports binding, not function.

The mark [1] stands for this setting: [125I]-CGRP displacement, SK-N-MC homogenate, room temperature 2 h, read-out: Human CGRP1 Receptor IC50.

T1 sequence (Q16602 23-461): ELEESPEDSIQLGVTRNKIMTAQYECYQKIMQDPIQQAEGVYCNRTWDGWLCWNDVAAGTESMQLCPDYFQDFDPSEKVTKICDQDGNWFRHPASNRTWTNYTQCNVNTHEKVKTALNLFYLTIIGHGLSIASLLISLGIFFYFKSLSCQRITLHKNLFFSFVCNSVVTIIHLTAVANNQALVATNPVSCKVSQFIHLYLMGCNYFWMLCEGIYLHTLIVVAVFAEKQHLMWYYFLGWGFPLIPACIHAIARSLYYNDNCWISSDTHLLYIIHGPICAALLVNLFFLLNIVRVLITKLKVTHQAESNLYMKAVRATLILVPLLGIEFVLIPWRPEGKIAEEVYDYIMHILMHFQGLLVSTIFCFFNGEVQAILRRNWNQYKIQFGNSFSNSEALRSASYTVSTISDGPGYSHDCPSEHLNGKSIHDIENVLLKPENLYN
T1 sequence (O60894 27-148): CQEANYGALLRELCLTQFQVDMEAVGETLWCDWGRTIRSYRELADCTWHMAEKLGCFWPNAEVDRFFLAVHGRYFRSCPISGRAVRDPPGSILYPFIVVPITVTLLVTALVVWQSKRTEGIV

In the case of `Cc1cc(CC(NC(=O)N2CCC(N3Cc4ccccc4NC3=O)CC2)c2nccn2Cc2ccccc2)cc2cn[nH]c12` (racemic) [Example 67, (±)-N-(1-(1-Benzyl-1H-imidazol-2-yl)-2-(7-methyl-1H-indazol-5-yl)ethyl)-4-(2-oxo-1,2-dihydroquinazolin-3(4H)-yl)piperidine-1-carboxamide], the IC50 (as a rule, the concentration that inhibits the measured activity by half) is < 10 nM.

In the case of `Cc1cc(CC(NC(=O)N2CCC(N3Cc4ccccc4NC3=O)CC2)c2nccn2Cc2cccc(F)c2)cc2cn[nH]c12` (racemic) [Example 68, (±)-N-(1-(1-(3-Fluorobenzyl)-1H-imidazol-2-yl)-2-(7-methyl-1H-indazol-5-yl)ethyl)-4-(2-oxo-1,2-dihydroquinazolin-3(4H)-yl)piperidine-1-carboxamide], under setting [1], the IC50 is < 10 nM.

In the case of `Cc1cc(CC(NC(=O)N2CCC(N3Cc4ccccc4NC3=O)CC2)c2nccn2Cc2cc(F)cc(F)c2)cc2cn[nH]c12` (racemic) [Example 69, (±)-N-(1-(1-(3,5-Difluorobenzyl)-1H-imidazol-2-yl)-2-(7-methyl-1H-indazol-5-yl)ethyl)-4-(2-oxo-1,2-dihydroquinazolin-3(4H)-yl)piperidine-1-carboxamide], the IC50 under setting [1] is < 10 nM.

Turning to `Cc1cc(CC(NC(=O)N2CCC(N3Cc4ccccc4NC3=O)CC2)c2nccn2CCc2ccccc2)cc2cn[nH]c12` (racemic) [Example 70, (±)-N-(2-(7-Methyl-1H-indazol-5-yl)-1-(1-phenethyl-1H-imidazol-2-yl)ethyl)-4-(2-oxo-1,2-dihydroquinazolin-3(4H)-yl)piperidine-1-carboxamide], the IC50 under setting [1] is < 10 nM.

For the molecule `Cc1cc(CC(NC(=O)N2CCC(N3Cc4ccccc4NC3=O)CC2)c2nccn2Cc2ccccc2F)cc2cn[nH]c12` (racemic) [Example 71, (±)-N-(1-(1-(2-Fluorobenzyl)-1H-imidazol-2-yl)-2-(7-methyl-1H-indazol-5-yl)ethyl)-4-(2-oxo-1,2-dihydroquinazolin-3(4H)-yl)piperidine-1-carboxamide], the IC50 under setting [1] is < 10 nM.

`Cc1cc(CC(NC(=O)N2CCC(N3Cc4ccccc4NC3=O)CC2)c2nccn2Cc2ccc(F)cc2)cc2cn[nH]c12` (racemic) [Example 72, (±)-N-(1-(1-(4-Fluorobenzyl)-1H-imidazol-2-yl)-2-(7-methyl-1H-indazol-5-yl)ethyl)-4-(2-oxo-1,2-dihydroquinazolin-3(4H)-yl)piperidine-1-carboxamide]: the IC50 under setting [1] is < 10 nM.

On to `Cc1cc(CC(NC(=O)N2CCC(N3Cc4ccccc4NC3=O)CC2)c2nccn2Cc2ccncc2)cc2cn[nH]c12` (racemic) [Example 73, (±)-N-(2-(7-Methyl-1H-indazol-5-yl)-1-(1-(pyridin-4-ylmethyl)-1H-imidazol-2-yl)ethyl)-4-(2-oxo-1,2-dihydroquinazolin-3(4H)-yl)piperidine-1-carboxamide], for which the IC50 under setting [1] was < 10 nM.

Regarding `Cc1cc(CC(NC(=O)N2CCC(N3Cc4ccccc4NC3=O)CC2)c2nccn2Cc2cccc(C#N)c2)cc2cn[nH]c12` (racemic) [Example 74, (±)-N-(1-(1-(3-Cyanobenzyl)-1H-imidazol-2-yl)-2-(7-methyl-1H-indazol-5-yl)ethyl)-4-(2-oxo-1,2-dihydroquinazolin-3(4H)-yl)piperidine-1-carboxamide], under setting [1], the IC50 was < 10 nM.

For the molecule `Cc1cc(CC(NC(=O)N2CCC(N3Cc4ccccc4NC3=O)CC2)c2nccn2Cc2ccc(C(C)(C)C)cc2)cc2cn[nH]c12` (racemic) [Example 75, (±)-N-(1-(1-(4-tert-Butylbenzyl)-1H-imidazol-2-yl)-2-(7-methyl-1H-indazol-5-yl)ethyl)-4-(2-oxo-1,2-dihydroquinazolin-3(4H)-yl)piperidine-1-carboxamide], the IC50 under setting [1] was < 10 nM.

Consider `Cc1cc(CC(NC(=O)N2CCC(N3Cc4ccccc4NC3=O)CC2)c2nccn2Cc2cccc(C(=O)O)c2)cc2cn[nH]c12` (racemic) [Example 76, (±)-3-((2-(2-(7-Methyl-1H-indazol-5-yl)-1-(4-(2-oxo-1,2-dihydroquinazolin-3(4H)-yl)piperidine-1-carboxamido)ethyl)-1H-imidazol-1-yl)methyl)benzoic acid], for which the IC50 under setting [1] was < 10 nM.

Regarding `Cc1cc(CC(NC(=O)N2CCC(N3Cc4ccccc4NC3=O)CC2)c2nccn2Cc2cccc(C(N)=O)c2)cc2cn[nH]c12` (racemic) [Example 77, (±)-N-(1-(1-(3-Carbamoylbenzyl)-1H-imidazol-2-yl)-2-(7-methyl-1H-indazol-5-yl)ethyl)-(2-oxo-1,2-dihydroquinazolin-3(4H)-yl)piperidine-1-carboxamide], the IC50 under setting [1] was < 10 nM.

As to `Cc1cc(CC(NC(=O)N2CCC(N3Cc4ccccc4NC3=O)CC2)c2nccn2-c2ccccc2[N+](=O)[O-])cc2cn[nH]c12` (racemic) [Example 79, (±)-N-(2-(7-Methyl-1H-indazol-5-yl)-1-(1-(2-nitrophenyl)-1H-imidazol-2-yl)ethyl)-4-(2-oxo-1,2-dihydroquinazolin-3(4H)-yl)piperidine-1-carboxamide], the IC50 under setting [1] is < 10 nM.

Turning to `Cc1cc(CC(NC(=O)N2CCC(N3Cc4cccc(F)c4NC3=O)CC2)c2nnn[nH]2)cc2cn[nH]c12` (racemic) [Example 80, (±)-4-(8-Fluoro-2-oxo-1,2-dihydroquinazolin-3 [4H]-yl)-N-(2{7-methyl-1H-indazol-5-yl}-1-{1H-tetrazol-5-yl}ethyl)piperidin-1-carboxamide], the IC50 under setting [1] is 100 to 1000 nM.

Regarding `Cc1cc(CC(NC(=O)N2CCC(N3Cc4cccc(F)c4NC3=O)CC2)c2nnnn2CC2CCNCC2)cc2cn[nH]c12` (racemic) [Example 81, (±)-4-(8-Fluoro-2-oxo-1,2-dihydroquinazolin-3(4H)-yl)-N-(2-[7-methyl-1H-indazol-5-yl]-1-[1-(piperidin-4-ylmethyl)-1H-tetrazol-5-yl]ethyl)piperidin-1-carboxamide], the concentration for half-maximal inhibition (IC50) under setting [1] was < 10 nM.

In the case of `Cc1cc(CC(NC(=O)N2CCC(N3Cc4cccc(F)c4NC3=O)CC2)c2nnn(CC3CCNCC3)n2)cc2cn[nH]c12` (racemic) [Example 82, (±)-4-(8-Fluoro-2-oxo-1,2-dihydroquinazolin-3(4H)-yl)-N-(2-[7-methyl-1H-indazol-5-yl]-1-[2-(piperidin-4-ylmethyl)-1H-tetrazol-5-yl]ethyl)piperidin-1-carboxamide], the half-inhibitory concentration (IC50) under setting [1] lay in the range of 10 to 100 nM.

Consider `Cc1cc(CC(NC(=O)N2CCC(N3Cc4cccc(F)c4NC3=O)CC2)c2nnc3ccccn23)cc2cn[nH]c12` (racemic) [Example 83, (±)-N-(1-([1,2,4]Triazolo [4,3-a]pyridin-3-yl)-2-(7-methyl-1H-indazol-5-yl)ethyl)-4-(8-fluoro-2-oxo-1,2-dihydroquinazolin-3(4H)-yl)piperidine-1-carboxamide], for which, under setting [1], the IC50 is < 10 nM.

As to `Cc1cc(CC(NC(=O)N2CCC(N3Cc4ccccc4NC3=O)CC2)c2nnnn2CC(C)(C)C)cc2cn[nH]c12` (racemic) [Example 84, (±)-N-(2-(7-Methyl-1H-indazol-5-yl)-1-(1-neopentyl-1H-tetrazol-5-yl)ethyl)-4-(2-oxo-1,2-dihydroquinazolin-3(4H)-yl)piperidine-1-carboxamide], the IC50 under setting [1] is < 10 nM.

`Cc1cc(CC(NC(=O)N2CCC(N3Cc4ccccc4NC3=O)CC2)c2ncc(Br)[nH]2)cc2cn[nH]c12` (racemic) [Example 86, (±)-N-(1-(4-Bromo-1H-imidazol-2-yl)-2-(7-methyl-1H-indazol-5-yl)ethyl)-4-(2-oxo-1,2-dihydroquinazolin-3(4H)-yl)piperidine-1-carboxamide]: the IC50 under setting [1] was < 10 nM.

These data come from patent US7569578B2, “Heterocyclic anti-migraine agents” (Bristol-Meyers Squibb Company, priority 2003, dated 2009).
